Results: patent US20250387360A1, “Methods and Compositions for Treatment of Addiction” (University of Connecticut, priority 2024, published 2025)

Experiments:
Type in all cases: in vivo, mouse
[1] = test system: male C57BL/6J mice; assay: 4-day DID binge-like ethanol drinking with SCFA supplementation in drinking water; conditions: 200 mM in drinking water 10 days, male mice n=21/group
Excerpt: Male C57BL/6J mice, (RRID: IMSR_JAX: 000664), aged 6-8 weeks, were obtained from Jackson Laboratories (ME, U.S.A) for the study. The mice were housed individually under a reversed 12-hours light/dark cycle, with lights off from […] to 7:00 am. A minimum acclimation period of 2 weeks was provided for all animals before they were randomly assigned to their respective groups. Mice had free access to food (Irradiated chow, Teklad global 18% protein rodent diet, 2918, Inotiv, WI, U.S.A) and deionized water to acclimate to the testing environment. Body weight and daily food and fluid intake were monitored and noted for all animal experiments.
(§1) A standard 4-day drinking in the dark (DID) model was used to evaluate binge-like ethanol drinking patterns in mice. A 20% v/v ethanol solution was prepared by diluting 190-proof ethyl alcohol (Sigma, MO, U.S.A) with deionized water. During days 1-3, the water bottles were temporarily removed during the dark cycle of the mice, and the mice were provided with a tube containing the 20% v/v ethanol solution for a duration of two hours. On day four, the assessment of binge-like ethanol consumption took place, where the mice were given access to the 20% v/v ethanol solution for a period of four hours. The volume of fluid in the tube (read to the closest 100 μL) was measured immediately upon placement, and at two hours and four hours into the test. Following the completion of the four hours test, approximately 100 μL of blood was collected through cardiac puncture after CO2 euthanasia. Blood samples were subjected to centrifugation at 10,000 rpm for 10 minutes. The determination of blood ethanol concentrations (BEC) was performed using an Analox AMI Analyzer (Analox Instruments, MA, U.S.A). The quantity of ethanol consumed was then calculated as grams per kilogram of the mouse's body weight.
All SCFA were used in sodium salt form. Briefly, sodium acetate (Sigma, MO, U.S.A), sodium butyrate (Sigma, MO, U.S.A), sodium valerate (Ambeed, IL, U.S.A), and sodium chloride (NaCl; Sigma, Mo, U.S.A) were prepared at 200 mM concentration freshly in drinking water every two days. These concentrations were chosen based on earlier studies conducted in mice [Qi Y., et al., Sodium acetate regulates milk fat synthesis through the activation of GPR41/GPR43 signaling pathway. Frontiers in nutrition 2023, 10:1098715; Daien C I, et al., Gut-derived acetate promotes B10 cells with anti-inflammatory effects. JCI insight 2021, 6 (7)]. All SCFA and NaCl solutions were pH verified to control for acidity effects on daily consumption. SCFAs were given to mice via oral drinking for 10 consecutive days before any experiment, and this regimen was maintained throughout the entire experiment.
General statistical analysis (non-microbiome and non-RNAseq analysis) were conducted using GraphPad Prism 8 (GraphPad, CA, USA, RRID:SCR_002798). For the calculation of ethanol consumption during the DID procedure, it was expressed as grams of ethanol per kilogram of body weight (g/kg body weight), where 20% ethanol intake was determined as follows: multiplying the drinking volume by the ethanol percentage within that volume and the density of ethanol, and then dividing this by the mouse's body weight in kilograms. Normality of data distributions was tested by Shapiro-Wilk test and by Q-Q plots. Levene's test was used to test equality of variances across groups. Unpaired Student's t-tests were used to compare behavioral testing, GABA levels, and histone acetylation measurements between the sodium valerate and NaCl groups. To evaluate the impact of antibiotic cocktail administration on ethanol consumption and BEC between the groups receiving Abx and PBS at baseline and after treatment, a mixed ANOVA test was employed, given repeated measures from the same mouse from the two time points. Similarly, mixed ANOVA tests were applied to compare various SCFA levels before and after Abx administration.

[2] = test system: female mice; assay: 4-day DID regimen in young female mice; conditions: n=7/group, same DID protocol, vs vehicle control
Method: as §1

[3] = test system: C57BL/6J mice; assay: Open field activity test (anxiety-like behavior); conditions: after 10 days supplementation, 10 min exploration, n=10 mice/group
Method: The open field activity test was conducted to assess the impact of sodium valerate supplementation on exploratory and anxiety-like behavior. This test is a widely used method for analyzing locomotor ability and anxiety-related emotional behaviors in C57BL/6J mice. The open field activity chamber, constructed from white Plexiglass and illuminated with daylight, had dimensions of 37.5 cm height×40 cm length×40 cm width. General locomotor activity was recorded for 10 min by an overhead camera and analyzed using an automated video tracking system (ANY-maze v.4.6, Stoelting, IL, U.S.A, RRID:SCR_014289). The primary variables of interest included the total distance traveled (cm), the number of entries in the center area (20 cm length×20 cm width), and the percentage of time spent in the center area of the open field.
The effects of sodium valerate and NaCl was examined on anxiety-like behavior (n=10 mice/group) after 10 days of supplementation by open-field activity test.

[4] = test system: GABA levels; assay: GABA ELISA in stool, amygdala and plasma after DID; conditions: 10 days supplementation following DID, vs NaCl
Method: GABA levels in plasma, stool, and amygdala samples were determined using an ELISA kit (LDN, Labor Diagnostika Nord, Nordhorn, Germany) following the manufacturer's instructions. Plasma samples were used directly without any additional preparation. For stool and amygdala, samples, they were first thawed and then homogenized in a solution consisting of 0.01N HCl (Thermo Fisher Scientific, MA, U.S.A), ImM EDTA (Thermo Fisher Scientific, MA, U.S.A), and 4 mM sodium metabisulfite (Thermo Fisher Scientific, MA, U.S.A). After homogenization, the samples underwent centrifugation at 3000×g for 5 minutes at 4° C. before GABA estimation. To summarize the assay procedure, plasma, homogenized stool, and amygdala samples, and the kit's standards were all processed on an extraction plate. They were subsequently derivatized using an equalizing reagent and subjected to a standard competitive ELISA conducted in GABA-coated 96-well microtiter strips. The optical density (OD) of the solution within the wells was rapidly read at 450 nm using a 96-well plate reader (iMark™ Microplate Absorbance Reader; Biorad, CA, U.S.A, RRID:SCR_023799). The OD data was employed to determine the GABA concentration via a standard curve.
The levels of GABA in the amygdala were measured next, stool, and blood of the mice that underwent the DID paradigm, comparing those supplemented with sodium valerate to those supplemented with NaCl.

[5] = test system: gut microbiome; assay: 16S rRNA sequencing of stool and gut-brain module analysis; conditions: stool
Method: Microbial genomic DNA extraction from mouse stool samples was carried out using the Quick-DNA Fecal/Soil Microbe 96 Kit (Zymo Research, CA, U.S.A) following the manufacturer's protocols. The hypervariable region V4 of the bacterial 16S rRNA gene, 515F (5′-[sequence]-3′ (SEQ ID NO: 1)) and 806R (5′-[sequence]-3′ (SEQ ID NO: 2)) was amplified and sequenced on the Illumina MiSeq platform (2×250 bp) (Illumina, CA, U.S.A). The raw sequencing reads were processed via the DADA2 V1.16 (RRID:SCR_023519) data processing pipeline to generate amplicon sequence variants (ASVs). Taxonomic assignments were made using the Silva database V138.1 (RRID:SCR_006423), with a classification confidence threshold set at p<0.5 for assigning unclassified taxa at their respective taxonomical levels. PCR negative controls and extraction controls for DNA extraction and sequencing were included in the analysis. […] Sequencing reads from all the samples were rarified to 10,000 reads per sample. […] All of the microbiome analysis was done in R.
16S rRNA gene sequencing of stool samples collected before and after sodium valerate treatment (n=7 mice/group) was performed. […] Permutational multivariate analysis of variance (PERMANOVA) tests were performed on CLR-transformed data to test for beta-diversity differences between sodium valerate and NaCl-supplemented groups (n=14 mice/group).

Question: With `CCCCC(=O)[O-].[Na+]` [sodium valerate] as the compound, how does the BEC lowered ([1]; vs NaCl) read?
Answer: 53%

Question: And the “reduction in ethanol consumption” value ([1]; vs NaCl)?
Answer: 40%

Question: What about the “ethanol consumption, median” value ([1]; NaCl control 7.16) of the same compound?
Answer: 4.03 g/kg body weight

Question: And the “alcohol binge drinking in female mice” value [2]?
Answer: significantly reduced

Question: And the “blood ethanol levels in female mice” value [2]?
Answer: significantly reduced

Question: What about the distance travelled [3] of the same compound?
Answer: did not lead to a significant change

Question: And the “number of entries in center (mean±SD)” value ([3]; p=0.01 vs NaCl)?
Answer: 57.50±5.48

Question: What about the “percentage of time spent in center area (mean±SD)” value ([3]; p=0.03 vs NaCl) of the same compound?
Answer: 15.29±4.82

Question: What about the “GABA levels in plasma” value ([4]; n=6 mice/group) of the same compound?
Answer: not significant

Question: What about the “GABA levels in stool” value ([4]; p=0.0001) of the same compound?
Answer: elevated

Question: What about the “GABA levels in the amygdala” value ([4]; p=0.01) of the same compound?
Answer: elevated

Question: And the “abundance of Ileibacterium genera” value ([5]; 10 days supplementation, adjusted p=0.24, unadjusted p=0.004)?
Answer: increase in abundance

Question: What about the “beta-diversity between sodium valerate and NaCl groups” value ([5]; after 10 days of supplementation, PERMANOVA/PCA) of the same compound?
Answer: increased dissimilarity

Question: And the “Dubosiella abundance, log2Fold change” value ([5]; after 10 days supplementation, DESeq2, adjusted p=9.46E-5)?
Answer: 7.84
